Source: patent US11872262B2, “Means and methods for treating bacterial infections” (VIB VZW, priority 2017, dated 2024)
Values after ≈ are worked out from the molar mass of the structure shown. Residues, ends and D or L forms follow the SMILES beside them.

How the values were obtained:
[1] = system: HeLa cells; experiment: In vitro mammalian cytotoxicity (LDH release, CellTiter Blue); assay type: cell-based, human
Description: Mammalian cytotoxicity was measured using the LDH release (Roche, Mannheim, Germany) and CellTiter Blue (Promega) methods. Briefly, HeLa cells (obtained from Bart De Strooper lab, tested to be mycoplasma free) were seeded in 96-well round bottom plates at a concentration of 3×10^5 cells/mL in Dulbecco's Modified Eagle's Medium and treated by different concentrations of peptides. Cells treated with 1% Triton™ X-100 and vehicle were considered as positive and negative controls, respectively. Micro-plates were incubated at 37° C., 5% CO2 and 90% humidity for 4 hours. The micro-plate was centrifuged at 1350 rpm for 10 minutes. 100 μL of supernatant was transferred into clear 96-well flat bottom microplates. In order to determine LDH activity in the supernatants, 100 μl reaction mix (catalyst and dye solution) were added to each well and incubated for 30 min at RT in the dark and the LDH reaction was stopped by adding 100 ul of the Stop solution. The absorbances of the samples were measured at 490 nm. The cell viability was calculated using the formula: (exp. value−negative control value)/(positive control value−negative control value)*100. The amount of absorbance is proportional to the number of living cells and corresponds to the cells' metabolic activity.

[2] = Solubility of peptide after ultracentrifugation; assay type: physicochemical; settings: 30 min after dissolving
Description: FIG. 1: Activity, cytotoxicity and aggregation of antibacterial aggregating peptides. (A) Time-killing curve of selected peptides against E. coli strain O157 treated at MIC concentration (average and s.d. of 3 replicates). (B, C, D) Transmission electron microcopy (TEM) of cross-sections of E. coli O157 embedded in resin. B is mock treated, C is P2- and D is P105-treated E. coli O157 (2 h). […] (F) Concentration-dependent hemolysis of human erythrocytes by selected peptides (average and s.d. of 3 replicates). (G) Cytoxicity of Colpeptin1 to human HeLa cells measured by CellTiter Blue assay (average and s.d. of 3 replicates) and (H) by LDH release assay (average and s.d. of 3 replicates). […] Data are from a single experiment that was replicated 3 times (J) Histogram of the size distribution of particles calculated from the DLS data recorded of freshly dissolved colpeptin1 using a linear polymer as particle model. […] (M) Fluorescence intensity of the amyloid-specific dye pFTAA added to preparation of colpeptin1, normalised to the intensity observed with amyloid fibrils of the Alzheimer beta-peptide at the same concentration in monomeric units (average and s.d. of 3 replicates). […] (0) Aggregation kinetics of Colpeptin1 monitored by pFTAA fluorescence in the presence of 1 mM hexaphosphate (average and s.d. of 4 replicates). […]

[3] = system: E coli ATCC 25922; assay type: cell-based, Escherichia coli
Description: (§1) Gram negative bacterial strains were cultivated in Luria-Bertani (LB) broth (Difco) and gram positive bacteria strains were grown in a rich medium, brain heart infusion (BHI) broth (Difco, Sparks, MD) at 37° C. Whenever required, growth media were supplemented with appropriate antibiotic to the medium or plates. Escherichia coli DH5α was used for cloning and plasmid amplification. […] Bacterial CFU counting was done on blood agar plates (BD Biosciences). Species identification and antibiograms for all clinical isolates were performed using MALDI-TOF and VITEK® 2 automated system (bioMérieux).
The MICs of active peptides were determined via the Broth microdilution assay according to the EUCAST guideline, which were performed in 96-well polystyrene flat-bottom microtiter plates (BD Biosciences). Briefly, a single colony was inoculated into 5 mL LB medium and grown to the end-exponential growth phase in a shaking incubator at 37° C. Cultures were subsequently diluted to an OD600 of 0.002 ([…]) in fresh LB medium. 100 μL of LB medium with different concentration of peptides ranging from 100 μg/mL to 1 μg/mL were serially diluted to the sterile 96-well plate (at least 3 wells in each plate). […] A multipurpose UV/VIS plate reader at OD590 nm, 1 s shaking measured the absorbance of the growth bacteria using a Perkin Elmer spectrophotometer (1420 Multilabel Counter Victor 3).

[4] = system: Proteus mirabilis; assay type: cell-based
Description: as §1
(§2) The MICs of active peptides were determined via the Broth microdilution assay according to the EUCAST guideline, which were performed in 96-well polystyrene flat-bottom microtiter plates (BD Biosciences). Briefly, a single colony was inoculated into 5 mL LB medium and grown to the end-exponential growth phase in a shaking incubator at 37° C. Cultures were subsequently diluted to an OD600 of 0.002 ([…]) in fresh LB medium. 100 μL of LB medium with different concentration of peptides ranging from 100 μg/mL to 1 μg/mL were serially diluted to the sterile 96-well plate (at least 3 wells in each plate). Afterward, 100 μL of the diluted bacteria were pipetted into 96-well plates containing different concentration of peptides. In each plate, the grown bacteria with maximum concentration of carrier and medium were considered as positive and negative controls, respectively. Thereafter, 96-well plates was statically incubated overnight at 37° C. to allow bacterial growth. A multipurpose UV/VIS plate reader at OD590 nm, 1 s shaking measured the absorbance of the growth bacteria using a Perkin Elmer spectrophotometer (1420 Multilabel Counter Victor 3).

[5] = system: Staphylococcus epidermidis 12228; assay type: cell-based
Description: as §1, §2

[6] = system: Neisseria; assay type: cell-based
Description: as §1, §2

[7] = system: Enterobacter cloacae LMG2783T; assay type: cell-based
Description: as §1, §2

[8] = In vitro haemolytic activity test; assay type: cell-based; settings: human erythrocytes; read-out: LC50, concentration at which the peptide induces 50% lysis of human erythrocytes
Description: The hemolytic activities of peptides were determined by hemolysis against human erythrocytes. Pooled fresh blood was obtained and erythrocytes were collected by centrifugation 3000 rpm for 5 minutes (Anticoagulated by EDTAK) (Cristina et al. 2015). The pellet was washed three times with PBS and was diluted to a concentration of 8% in PBS. 100 μL of 8% Red blood cells solution was mixed with 100 μL of serial dilutions of peptides in PBS buffer in 96 well plates (BD Biosciences). The reaction mixtures were incubated for 1 h at 37° C. Thereupon, the plate was centrifuged for 10 minutes at 3000 rpm and 100 μL of supernatant was transferred to a sterilized 96-well plate (flat bottom). The release of hemoglobin was determined by measuring the absorbance of the supernatant at 405 nm. […] Erythrocytes in 1% Triton and Max used concentration of vehicle were used as control of 100% and 0% hemolysis, respectively.

CC(C)C[C@H](NC(=O)CNC(=O)[C@H](CCCNC(=N)N)NC(=O)[C@@H]1CCCN1C(=O)[C@H](CCCNC(=N)N)NC(=O)[C@H](CCCNC(=N)N)NC(=O)[C@@H](NC(=O)[C@H](CC(C)C)NC(=O)[C@H](C)NC(=O)[C@H](CC(C)C)NC(=O)CNC(=O)[C@H](CC(C)C)NC(=O)CNC(=O)[C@@H](N)CCCNC(=N)N)C(C)C)C(=O)NCC(=O)N[C@@H](CC(C)C)C(=O)N[C@@H](C)C(=O)N[C@@H](CC(C)C)C(=O)N[C@H](C(=O)N[C@@H](CCCNC(=N)N)C(=O)N[C@@H](CCCNC(=N)N)C(=O)O)C(C)C [Peptide P2] (H-RGLGLALVRRPRGLGLALVRR-OH)
toxicity towards mammalian cells [1]: little or no toxicity towards mammalian cells
peptide remaining in solution [2]: less than 60%
MIC [3]: 12 µg/mL (≈ 5.22 µM)
MIC [4]: 50 µg/mL (≈ 21.7 µM)
MIC [5]: 50 µg/mL (≈ 21.7 µM)
MIC [6]: 50 µg/mL (≈ 21.7 µM)
MIC [7]: 50 µg/mL (≈ 21.7 µM)
HC50 at 1 h [8]: 1100 µg/mL
